Test results from publication PMC5354814, “In silico and in vitro drug screening identifies new therapeutic approaches for Ewing sarcoma” (Oncotarget, 2016).
Like-named read-outs stand apart in the source and are kept apart here.

Assays:
Assay type in all cases: cell-based
[1] = test system: Hs 919.T.; experiment: Hits validation, dose-response cell proliferation (CellTiter-Glo)
Experimental: These drugs were chosen based on their known mechanisms and safety profiles. We also tested the synergy between these drug hits (Supplementary Figures S6–S11). […] We evaluated the anti-proliferation effect in combination treatments using the EWS and control cell lines.
(§1) For hits validation and combination study, cells were harvested and aliquoted into 384-well plates at concentrations of 750–1,500 cells per well in a total of 20 μl/well using a Matrix Wellmate (Thermo Scientific). Five μl of culture media containing either vehicles or drug were added to each well the next day (drug concentrations range from 1 nmol/L to 50 μmol/L). For combination study, selected drugs were archived in robotically accessible plates, to which media was added in preparation for addition to master plates by a Nimbus 96 liquid-dispensing workstation (Hamilton). Liquid transfers to dilution and assay plates were handled using the same workstation. Each 384-well master plate contained four 9 by 9 dose-matrix blocks, with eight serial two-fold dilutions (concentrations range from 7.8 nmol/L to 1 μmol/L). Additional wells were reserved for untreated, and vehicle-treated control wells. Cell proliferation was evaluated using Cell-Titer Glo® reagents (Promega). IC50 values were determined for each drug using SigmaPlot (Systat Software). The combination index values were calculated using SigmaPlot (Systat Software) and CompuSyn.

[2] = test system: RD-ES; experiment: as above
Experimental: as §1

[3] = test system: CHLA-258; experiment: as above
Experimental: as §1

[4] = test system: SK-ES-1; experiment: as above; details: 12-point dose-response 50 μmol/L to 1 nmol/L, mean ± SD
Experimental: as §1

[5] = test system: COG-E-352; experiment: as above
Experimental: as §1

[6] = test system: A673; experiment: as above
Experimental: as §1

[7] = test system: Hs 822.T.; experiment: as above
Experimental: as §1

[8] = test system: Hs 863.T.; experiment: as above
Experimental: as §1

[9] = test system: TC-71; experiment: as above
Experimental: as §1

[10] = test system: RD-ES; experiment: In vitro high-throughput screen of FDA-approved drug library (CellTiter-Glo); details: 1 μmol/L drug, 72 hours; for inhibition at 1 µM: RD-ES, read-out: % Inhibition RD-ES
Experimental: (§2) We screened, in parallel to the three computational approaches, an FDA-approved drug library containing 2,316 drugs (1,536 unique chemical entities). […] The drug screening study protocol employed is summarized in Supplementary Table S1.
(§3) Cells were grown to 80–90% confluence, harvested and aliquoted into 384-well plates (black μClear microplates, Greiner bio-one, Germany) at concentrations of 750–1,500 cells per well in a total volume of 25 μl/well using a Matrix Wellmate (Thermo Scientific). Cells were cultured for 72 hours in a 5% CO2 atmosphere at 37°C. Aliquots of 25 μl CellTiter-Glo® Reagent (Promega) were added directly to each well, the plates were incubated at room temperature for 20 min and the luminescence signal was measured according to the manufacturer's protocol. The measurements were made using Infinite® M200 Pro plate reader (Tecan, Switzerland). […] Data were normalized to percentage inhibition. […]
(§4) (A) Color scale for drug inhibition values. […]

[11] = test system: Hs 919.T.; experiment: as above; details: 1 μmol/L drug, 72 hours, control cell line; for inhibition at 1 µM: read-out: % Inhibition Hs 919.T.
Experimental: as §2, §3, §4

[12] = test system: SK-ES-1; experiment: as above; details: 1 μmol/L drug, 72 hours; for inhibition at 1 µM: Homo sapiens, SK-ES1, read-out: % Inhibition SK-ES-1
Experimental: as §2, §3, §4

[13] = test system: A673; experiment: as above; details: 1 μmol/L drug, 72 hours; for inhibition at 1 µM: Homo sapiens, A673, read-out: % Inhibition A673
Experimental: as §2, §3, §4

[14] = control cell line, 12-point dose-response, mean ± SD
[15] = RD-ES, 12-point dose-response 50 μmol/L to 1 nmol/L, mean ± SD
[16] = 12-point dose-response 50 μmol/L to 1 nmol/L, mean ± SD
[17] = Homo sapiens, A673, 12-point dose-response 50 μmol/L to 1 nmol/L, mean ± SD
[18] = TC-71, 12-point dose-response 50 μmol/L to 1 nmol/L, mean ± SD

Row | Molecule | IC50 [1, 14] [µM] | IC50 [2, 15] [µM] | IC50 [3, 16] [µM] | IC50 ([4]; Homo sapiens, SK-ES1) [µM] | IC50 [5, 16] [µM] | IC50 [6, 17] [µM] | IC50 [7, 14] [µM] | IC50 [8, 14] [µM] | IC50 [9, 18] [µM] | inhibition at 1 µM [10] [%] | inhibition at 1 µM [11] [%] | inhibition at 1 µM [12] [%] | inhibition at 1 µM [13] [%] | further results
1 | CC1=C(/C=C/C(C)=C/C=C/C(C)=C/C(=O)O)C(C)(C)CCC1 [Tretinoin] | > 50 | > 50 | 4.95 ± 3.82 | > 50 | 35.5 ± 6.28 | > 50 | > 50 | > 50 | > 50 | – | – | – | – | –
2 | Nc1ccccc1NC(=O)c1ccc(CNC(=O)OCc2cccnc2)cc1 [MS275] | > 50 | 2 ± 0.85 | 0.15 ± 0.03 | 2.4 ± 1.01 | 1.47 ± 0.54 | 2.5 ± 1.02 | > 25 | > 25 | 1.53 ± 0.49 | – | – | – | – | –
3 | OCCN1CCN(CCCN2c3ccccc3Sc3ccc(C(F)(F)F)cc32)CC1 [Fluphenzaine] | 15.5 ± 3.68 | – | 19 ± 6.79 | – | 16.1 ± 7.51 | – | 22.7 ± 7.23 | 20.5 ± 2.88 | – | – | – | – | – | IC50 [2, 16]: 14.3 ± 3.21 µM; IC50 [4]: 16.3 ± 3.66 µM; IC50 [6, 16]: 10.5 ± 2.89 µM; IC50 [9, 16]: 17 ± 6.68 µM
4 | COc1ccc(C[C@H](N)C(=O)N[C@H]2[C@@H](O)[C@H](n3cnc4c(N(C)C)ncnc43)O[C@@H]2CO)cc1 [Puromycin] | 0.89 ± 0.03 | 0.35 ± 0.03 | 0.06 ± 0.02 | 0.35 ± 0.1 | 0.05 ± 0.01 | 0.25 ± 0.01 | 0.55 ± 0.13 | 1.02 ± 0.26 | 0.08 ± 0.05 | – | – | – | – | –
5 | CC[C@]1(O)C[C@@H]2CN(CCc3c([nH]c4ccccc34)[C@@](C(=O)OC)(c3cc4c(cc3OC)N(C)[C@H]3[C@@](O)(C(N)=O)[C@H](O)[C@]5(CC)C=CCN6CC[C@]43[C@@H]65)C2)C1 [Vindesine] | 4.58 ± 0.45 | < 0.003 | < 0.003 | < 0.003 | < 0.003 | < 0.003 | 0.25 ± 0.01 | 0.28 ± 0.01 | < 0.003 | – | – | – | – | –
6 | CC1=CC(=O)c2ccccc2C1=O [Menadione] | 15.8 ± 2.35 | 10.6 ± 3.2 | 3.64 ± 2.08 | 5.56 ± 1.24 | 5.62 ± 1.31 | 6.8 ± 1.35 | 12.2 ± 2.12 | 14.2 ± 3.2 | 2.94 ± 3.48 | – | – | – | – | –
7 | C[n+]1cc2c3c(ccc2c2ccc4cc5c(cc4c21)OCO5)OCO3 [Sanguinarine] | 1.44 ± 0.32 | 1.5 ± 0.12 | 0.95 ± 0.31 | 1.87 ± 0.51 | 1.05 ± 0.18 | 0.75 ± 0.14 | 1.55 ± 0.26 | 1.25 ± 0.14 | 0.2 ± 0.08 | – | – | – | – | –
8 | COc1c2ccoc2nc2c(OC)c(OCC(O)C(C)(C)O)ccc12 (stereo not shown) [Evoxine] | > 50 | > 50 | > 50 | > 50 | > 50 | > 50 | > 50 | > 50 | > 50 | – | – | – | – | –
9 | COc1cccc2c1C(=O)c1c(O)c3c(c(O)c1C2=O)C[C@@](O)(C(C)=O)C[C@@H]3O[C@H]1C[C@H](N)[C@H](O)[C@H](C)O1 [Daunorubicin] | 0.42 ± 0.15 | 0.05 ± 0.03 | < 0.003 | 0.04 ± 0.03 | < 0.003 | 0.05 ± 0.02 | 0.15 ± 0.12 | 0.18 ± 0.08 | 0.0046 ± 0.0004 | – | – | – | – | –
10 | CC(C)C[C@H](NC(=O)[C@H](Cc1ccccc1)NC(=O)c1cnccn1)B(O)O [Bortezomib] | 0.17 ± 0.003 | 0.01 ± 0.001 | 0.007 | 0.02 ± 0.002 | 0.005 | 0.01 ± 0.003 | 0.45 ± 0.08 | 0.18 ± 0.03 | 0.005 ± 0.0081 | – | – | – | – | –
11 | CN(C)CCOC(=O)COc1ccc(Cl)cc1 [Meclofenoxate] | > 50 | > 50 | > 50 | > 50 | > 50 | > 50 | > 50 | > 50 | > 50 | – | – | – | – | –
12 | O=C(O)CCC(=O)c1ccc(-c2ccccc2)cc1 [Fenbufen] | > 50 | > 50 | > 50 | > 50 | > 50 | > 50 | > 50 | > 50 | > 50 | – | – | – | – | –
13 | CCC(C)(C)C(=O)O[C@H]1C[C@@H](C)C=C2C=C[C@H](C)[C@H](CC[C@@H]3C[C@@H](O)CC(=O)O3)[C@H]21 [Simvastatin] | 2.88 ± 0.58 | 3.25 ± 0.14 | 0.25 ± 0.13 | 3.86 ± 0.89 | 10.5 ± 1.7 | 0.58 ± 0.05 | 2.08 ± 0.84 | 4.1 ± 0.56 | 4.33 ± 3.86 | – | – | – | – | –
14 | (R)-Apomorphine | – | – | – | – | – | – | – | – | – | – | – | – | – | IC50 [1]: 16.7 ± 3.02 µM; IC50 [2]: 7.85 ± 1.69 µM; IC50 [3]: 14.7 ± 6.86 µM; IC50 [5]: 4.01 ± 1.55 µM; IC50 [6]: 8.52 ± 2.14 µM; IC50 [7]: 14.3 ± 1.47 µM; IC50 [8]: 15.2 ± 2.19 µM; IC50 [9]: 17.3 ± 2.21 µM
15 | COc1cc([C@@H]2c3cc4c(cc3[C@@H](O[C@@H]3O[C@@H]5CO[C@@H](C)O[C@H]5[C@H](O)[C@H]3O)[C@H]3COC(=O)[C@H]23)OCO4)cc(OC)c1O [Etoposide] | – | – | – | – | – | – | – | – | – | 84 | < 50 | 84 | < 50 | –
16 | CO[C@H]1C[C@@H]2CC[C@@H](C)[C@@](O)(O2)C(=O)C(=O)N2CCCC[C@H]2C(=O)O[C@H]([C@H](C)C[C@@H]2CC[C@@H](O)[C@H](OC)C2)CC(=O)[C@H](C)/C=C(\C)[C@@H](O)[C@@H](OC)C(=O)[C@H](C)C[C@H](C)/C=C/C=C/C=C/1C [Rapamycin] | – | – | – | – | – | – | – | – | – | 62 | < 50 | 51 | 67 | –
17 | CO[C@@H]1[C@@H](OC(N)=O)[C@@H](O)[C@H](Oc2ccc3c(O)c(NC(=O)c4ccc(O)c(CC=C(C)C)c4)c(=O)oc3c2C)OC1(C)C [Novobiocin sodium] | – | – | – | – | – | – | – | – | – | 51 | < 50 | < 50 | 60 | –
18 | Nc1nc(Cl)nc2c1ncn2[C@@H]1O[C@H](CO)[C@@H](O)[C@@H]1F [Clofarabine] | – | – | – | – | – | – | – | – | – | 99 | < 50 | 98 | 93 | –
19 | C=C1[C@@H]2CC[C@H]3[C@]4(C)C[C@H](O[C@@H]5O[C@H](CO)[C@@H](OS(=O)(=O)[O-])[C@H](OS(=O)(=O)[O-])[C@H]5OC(=O)CC(C)C)C[C@@H](C(=O)O)[C@H]4CC[C@]3(C2)[C@H]1O.[K+].[K+] [Atractyloside potassium salt] | – | – | – | – | – | – | – | – | – | – | – | – | – | % Inhibition RD-ES [10]: 98%; % Inhibition Hs 919.T. [11]: < 50%; % Inhibition SK-ES-1 [12]: 99%; % Inhibition A673 [13]: 99%
20 | O=c1[nH]c(=O)n([C@H]2C[C@H](O)[C@@H](CO)O2)cc1F [Floxuridine] | – | – | – | – | – | – | – | – | – | 92 | < 50 | 56 | 68 | –
21 | C[C@]12CCC(=O)C=C1CC[C@@H]1[C@@H]2CC[C@@]2(C)[C@H]1CC[C@]2(C)O [Methyltestosterone] | – | – | – | – | – | – | – | – | – | 73 | < 50 | < 50 | < 50 | –
22 | COC(=O)Nc1nc2ccc(C(=O)c3ccccc3)cc2[nH]1 [Mebendazole] | – | – | – | – | – | – | – | – | – | 95 | < 50 | 96 | 94 | –
23 | NC(=O)N/N=C/c1ccc([N+](=O)[O-])o1 [Nitrofural/Nitrofurazone, Nitrofurazone] | – | – | – | – | – | – | – | – | – | 52 | < 50 | 72 | 52 | –
24 | Cc1cc(/C=C/c2ccc3cc(N(C)C)ccc3[n+]2C)c(C)n1-c1ccccc1 [Pyrvinium pamoate] | – | – | – | – | – | – | – | – | – | 98 | < 50 | 96 | 84 | –
25 | Cc1nc2ccc(CN(C)c3ccc(C(=O)N[C@@H](CCC(=O)O)C(=O)O)s3)cc2c(=O)[nH]1 [Raltitrexed] | – | – | – | – | – | – | – | – | – | 80 | < 50 | 51 | 59 | –
